# PMC10763615, “Identification and engineering of potent cyclic peptides with selective or promiscuous binding through biochemical profiling and bioinformatic data analysis” (RSC Chemical Biology, 2023)
# Positions of bridges follow the written chain, without caps; N, C: chain ends. Residues, ends and D or L forms follow the SMILES beside them.
# How the values were obtained:
# Assay type in all cases: binding
# [1] = target: T1, FGF-R4 ECD (Homo sapiens, UniProt P22455); assay: single concentration BLI of crude peptides; conditions: crude T18 selection 1 (1:1:1) peptides, single concentration BLI (Table S4); read-out: KD (4)
# T1 construct: DNA constructs for the extracellular domain (ECD) of human FGF-; HPC4 (C); made in house; host or cells: HEK 293-6E
# T1 sequence (P22455 22-369 limits assumed): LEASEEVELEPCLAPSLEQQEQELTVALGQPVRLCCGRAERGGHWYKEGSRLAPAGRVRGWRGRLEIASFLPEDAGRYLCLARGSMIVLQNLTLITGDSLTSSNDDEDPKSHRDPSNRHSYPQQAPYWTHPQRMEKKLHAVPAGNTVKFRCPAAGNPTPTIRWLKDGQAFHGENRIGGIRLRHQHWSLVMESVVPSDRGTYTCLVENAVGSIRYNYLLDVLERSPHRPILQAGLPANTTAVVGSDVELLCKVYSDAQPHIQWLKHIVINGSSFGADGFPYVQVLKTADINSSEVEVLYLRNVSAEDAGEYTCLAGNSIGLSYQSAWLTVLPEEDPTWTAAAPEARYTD
# Protocol: (§1) KD affinity binding measurements were obtained by biolayer interferometry (BLI) instruments (Fortebio Octet HTX, or Sartorius Octet RH16 using either 8 or 16 channel mode.
# For single concentration binding experiments, 50 μM peptide stocks in folding buffer were diluted 1:50 in mRNA display selection buffer (PBS pH7.4 supplemented with 0.05% Tween-20 and 0.01% BSA) in either a 96 well black plate, or a 384 well tilted bottom microplate (ForteBio). Biotinylated FGF-R protein was loaded onto Streptavidin-functionalised biosensors (ForteBio) and immersed into ~1 μM peptide to obtain association kinetics curves. Dissociation kinetics curves were obtained by subsequent immersion of ligand-associated loaded sensors into a 1:50 dilution of folding buffer in mRNA display selection buffer. Fitted KD data was adjusted for concentration as determined by UPLC-CAD. […]
# [2] = target: T2, FGF-R1C ECD (Homo sapiens, UniProt P11362); assay: biochemical; set-up: DNA constructs for the extracellular domain (ECD) of human FGF-; HPC4 (C); made in house; host or cells: HEK 293-6E
# T2 sequence (P11362 22-376 limits assumed): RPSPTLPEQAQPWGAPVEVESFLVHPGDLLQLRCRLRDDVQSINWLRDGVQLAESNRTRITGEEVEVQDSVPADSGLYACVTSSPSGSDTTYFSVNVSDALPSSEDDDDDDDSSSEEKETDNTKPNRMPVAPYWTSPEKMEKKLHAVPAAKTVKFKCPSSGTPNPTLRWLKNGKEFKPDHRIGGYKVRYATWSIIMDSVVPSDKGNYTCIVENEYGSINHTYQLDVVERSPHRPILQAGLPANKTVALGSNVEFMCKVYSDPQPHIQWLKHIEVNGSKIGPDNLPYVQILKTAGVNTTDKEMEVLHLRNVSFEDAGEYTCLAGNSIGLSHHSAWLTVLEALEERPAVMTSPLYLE
# Protocol: as §1
# (§2) For single concentration binding experiments, 50 μM peptide stocks in folding buffer were diluted 1:50 in mRNA display selection buffer (PBS pH7.4 supplemented with 0.05% Tween-20 and 0.01% BSA) in either a 96 well black plate, or a 384 well tilted bottom microplate (ForteBio). Biotinylated FGF-R protein was loaded onto Streptavidin-functionalised biosensors (ForteBio) and immersed into ~1 μM peptide to obtain association kinetics curves. Dissociation kinetics curves were obtained by subsequent immersion of ligand-associated loaded sensors into a 1:50 dilution of folding buffer in mRNA display selection buffer. Fitted KD data was adjusted for concentration as determined by UPLC-CAD.
# (§3) For accurate multi-concentration KD determination, dilution series of each peptide were made, and association and dissociation kinetics curves were obtained as above for each concentration to fit a multi-point KD binding model. Data collection and analysis was performed using the Octet Instrument Control […]
# (§4) concentration assay kinetics curves shown in supplementary Figure S 19-24.
# [3] = target: T3, FGF-R3C ECD (Homo sapiens, UniProt P22607); assay: biochemical; set-up: DNA constructs for the extracellular domain (ECD) of human FGF-; HPC4 (C); made in house; host or cells: HEK 293-6E
# T3 sequence (P22607 23-375 limits assumed): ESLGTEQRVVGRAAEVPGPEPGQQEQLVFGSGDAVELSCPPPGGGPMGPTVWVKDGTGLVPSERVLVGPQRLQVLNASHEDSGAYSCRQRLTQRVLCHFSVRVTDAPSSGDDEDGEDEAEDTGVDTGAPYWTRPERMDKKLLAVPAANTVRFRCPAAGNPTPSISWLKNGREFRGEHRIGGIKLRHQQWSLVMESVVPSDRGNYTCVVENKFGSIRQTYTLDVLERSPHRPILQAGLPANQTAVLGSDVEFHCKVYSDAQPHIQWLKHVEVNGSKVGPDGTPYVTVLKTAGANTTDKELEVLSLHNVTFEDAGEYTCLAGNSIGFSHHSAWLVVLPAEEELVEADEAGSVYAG
# Protocol: as §1, §2, §3, §4
structure (smiles),measurement,setting,value
CSCC[C@H](NC(C)=O)C(=O)N[C@H]1CSSC[C@@H](C(=O)NCC(=O)N[C@@H](CO)C(=O)NCC(=O)N[C@@H](CO)C(=O)N[C@@H](CCC(=O)O)C(=O)N[C@@H](CCC(=O)O)C(=O)NCC(=O)N[C@@H](CO)C(=O)NCC(=O)N[C@@H](CO)C(=O)N[C@@H](CC(=O)O)C(=O)N[C@@H](Cc2ccc(O)cc2)C(=O)N[C@@H](CCCCN)C(=O)N[C@@H](CC(=O)O)C(=O)N[C@@H](CC(=O)O)C(=O)N[C@@H](CC(=O)O)C(=O)N[C@@H](CC(=O)O)C(=O)N[C@@H](CCCCN)C(N)=O)NC(=O)[C@H](CCCCN)NC(=O)[C@H](CCCCN)NC(=O)[C@H](CCC(N)=O)NC(=O)[C@H](Cc2ccc(O)cc2)NC(=O)[C@H](CCCCN)NC(=O)[C@H](Cc2ccc(O)cc2)NC(=O)[C@H](Cc2c[nH]c3ccccc23)NC(=O)[C@H](CC(C)C)NC(=O)[C@H](C(C)C)NC(=O)[C@H]([C@@H](C)O)NC(=O)[C@H](Cc2ccc(O)cc2)NC1=O (Ac-MCYTVLWYKYQKKCGSGSEEGSGSDYKDDDDK-NH2; disulfide 2-14),Kd,[1],0.001 µM
same,Kd,[2],> 10 µM
same,Kd,[3],> 10 µM
CSCC[C@H](NC(C)=O)C(=O)N[C@H]1CSSC[C@@H](C(=O)NCC(=O)N[C@@H](CO)C(=O)NCC(=O)N[C@@H](CO)C(=O)N[C@@H](CCC(=O)O)C(=O)N[C@@H](CCC(=O)O)C(=O)NCC(=O)N[C@@H](CO)C(=O)NCC(=O)N[C@@H](CO)C(=O)N[C@@H](CC(=O)O)C(=O)N[C@@H](Cc2ccc(O)cc2)C(=O)N[C@@H](CCCCN)C(=O)N[C@@H](CC(=O)O)C(=O)N[C@@H](CC(=O)O)C(=O)N[C@@H](CC(=O)O)C(=O)N[C@@H](CC(=O)O)C(=O)N[C@@H](CCCCN)C(N)=O)NC(=O)[C@H](CCCNC(=N)N)NC(=O)[C@H](CO)NC(=O)[C@H](Cc2c[nH]cn2)NC(=O)[C@H](CCCCN)NC(=O)[C@H](CC(C)C)NC(=O)[C@H](Cc2c[nH]c3ccccc23)NC(=O)[C@H](CC(C)C)NC(=O)[C@H](CCCCN)NC(=O)[C@H](Cc2ccc(O)cc2)NC(=O)[C@H](Cc2ccc(O)cc2)NC(=O)[C@H](C(C)C)NC(=O)[C@H](C)NC1=O (Ac-MCAVYYKLWLKHSRCGSGSEEGSGSDYKDDDDK-NH2; disulfide 2-15),Kd,[1],0.007 µM
same,Kd,[2],> 10 µM
CC[C@H](C)[C@@H]1NC(=O)[C@H](CCC(=O)O)NC(=O)[C@H](Cc2ccc(O)cc2)NC(=O)[C@@H](NC(=O)[C@H](CCSC)NC(C)=O)CSSC[C@@H](C(=O)NCC(=O)N[C@@H](CO)C(=O)NCC(=O)N[C@@H](CO)C(=O)N[C@@H](CC(=O)O)C(=O)N[C@@H](Cc2ccc(O)cc2)C(=O)N[C@@H](CCCCN)C(=O)N[C@@H](CC(=O)O)C(=O)N[C@@H](CC(=O)O)C(=O)N[C@@H](CC(=O)O)C(=O)N[C@@H](CC(=O)O)C(=O)N[C@@H](CCCCN)C(N)=O)NC(=O)[C@H](C(C)C)NC(=O)[C@H](CCCNC(=N)N)NC(=O)[C@H](CCC(N)=O)NC(=O)[C@H](CC(C)C)NC(=O)[C@H](CCCCN)NC(=O)[C@H](Cc2ccc(O)cc2)NC(=O)[C@H](Cc2c[nH]c3ccccc23)NC(=O)[C@H]([C@@H](C)CC)NC1=O (Ac-MCYEIIWYKLQRVCGSGSDYKDDDDK-NH2; disulfide 2-14),Kd,[2],> 10 µM
same,Kd,[3],> 10 µM
CC[C@H](C)[C@@H]1NC(=O)[C@H](Cc2c[nH]cn2)NC(=O)[C@@H](NC(=O)[C@H](CCSC)NC(C)=O)CSSC[C@@H](C(=O)NCC(=O)N[C@@H](CO)C(=O)NCC(=O)N[C@@H](CO)C(=O)N[C@@H](CC(=O)O)C(=O)N[C@@H](Cc2ccc(O)cc2)C(=O)N[C@@H](CCCCN)C(=O)N[C@@H](CC(=O)O)C(=O)N[C@@H](CC(=O)O)C(=O)N[C@@H](CC(=O)O)C(=O)N[C@@H](CC(=O)O)C(=O)N[C@@H](CCCCN)C(N)=O)NC(=O)[C@H](C(C)C)NC(=O)[C@H](Cc2ccc(O)cc2)NC(=O)[C@H](Cc2c[nH]cn2)NC(=O)[C@H](Cc2ccccc2)NC(=O)[C@H](CCC(N)=O)NC(=O)[C@H](CC(N)=O)NC(=O)[C@H](CC(N)=O)NC(=O)[C@H](Cc2ccccc2)NC(=O)[C@H](Cc2ccc(O)cc2)NC(=O)[C@H](Cc2c[nH]c3ccccc23)NC1=O (Ac-MCHIWYFNNQFHYVCGSGSDYKDDDDK-NH2; disulfide 2-15),Kd,[1],0.006 µM
same,Kd,[2],> 10 µM
CC[C@H](C)[C@@H]1NC(=O)CNC(=O)[C@H]([C@@H](C)O)NC(=O)[C@H](CO)NC(=O)[C@H]([C@@H](C)CC)NC(=O)[C@H](CC(N)=O)NC(=O)[C@H](CCCCN)NC(=O)[C@H](Cc2ccc(O)cc2)NC(=O)[C@@H](NC(=O)[C@H](CCSC)NC(C)=O)CSSC[C@@H](C(=O)NCC(=O)N[C@@H](CO)C(=O)NCC(=O)N[C@@H](CO)C(=O)N[C@@H](CC(=O)O)C(=O)N[C@@H](Cc2ccc(O)cc2)C(=O)N[C@@H](CCCCN)C(=O)N[C@@H](CC(=O)O)C(=O)N[C@@H](CC(=O)O)C(=O)N[C@@H](CC(=O)O)C(=O)N[C@@H](CC(=O)O)C(=O)N[C@@H](CCCCN)C(N)=O)NC(=O)[C@H](Cc2ccc(O)cc2)NC(=O)[C@H](CC(C)C)NC(=O)[C@H](Cc2ccccc2)NC1=O (Ac-MCYKNISTGIFLYCGSGSDYKDDDDK-NH2; disulfide 2-14),Kd,[2],> 10 µM
same,Kd,[3],> 10 µM
CC[C@H](C)[C@@H]1NC(=O)[C@H](Cc2c[nH]cn2)NC(=O)[C@H](CCCNC(=N)N)NC(=O)[C@H](CCCCN)NC(=O)[C@@H](NC(=O)[C@H](CCSC)NC(C)=O)CSSC[C@@H](C(=O)NCC(=O)N[C@@H](CO)C(=O)NCC(=O)N[C@@H](CO)C(=O)N[C@@H](CCC(=O)O)C(=O)N[C@@H](CCC(=O)O)C(=O)NCC(=O)N[C@@H](CO)C(=O)NCC(=O)N[C@@H](CO)C(=O)N[C@@H](CC(=O)O)C(=O)N[C@@H](Cc2ccc(O)cc2)C(=O)N[C@@H](CCCCN)C(=O)N[C@@H](CC(=O)O)C(=O)N[C@@H](CC(=O)O)C(=O)N[C@@H](CC(=O)O)C(=O)N[C@@H](CC(=O)O)C(=O)N[C@@H](CCCCN)C(N)=O)NC(=O)[C@H](C(C)C)NC(=O)[C@H](Cc2ccc(O)cc2)NC(=O)[C@H](CC(C)C)NC(=O)[C@H](CCC(N)=O)NC(=O)[C@H](Cc2c[nH]c3ccccc23)NC(=O)[C@H](Cc2ccc(O)cc2)NC(=O)[C@H](CCCNC(=N)N)NC1=O (Ac-MCKRHIRYWQLYVCGSGSEEGSGSDYKDDDDK-NH2; disulfide 2-14),Kd,[2],0.265 µM
same,Kd,[3],0.838 µM
CC[C@H](C)[C@@H]1NC(=O)[C@H](CCC(=O)O)NC(=O)[C@H](CCCNC(=N)N)NC(=O)[C@@H](NC(=O)[C@H](CCSC)NC(C)=O)CSSC[C@@H](C(=O)NCC(=O)N[C@@H](CO)C(=O)NCC(=O)N[C@@H](CO)C(=O)N[C@@H](CC(=O)O)C(=O)N[C@@H](Cc2ccc(O)cc2)C(=O)N[C@@H](CCCCN)C(=O)N[C@@H](CC(=O)O)C(=O)N[C@@H](CC(=O)O)C(=O)N[C@@H](CC(=O)O)C(=O)N[C@@H](CC(=O)O)C(=O)N[C@@H](CCCCN)C(N)=O)NC(=O)[C@H](Cc2ccccc2)NC(=O)[C@H](C)NC(=O)[C@H](CCCNC(=N)N)NC(=O)[C@H](Cc2ccc(O)cc2)NC(=O)[C@H](CC(C)C)NC(=O)[C@H](CCC(N)=O)NC(=O)[C@H](Cc2c[nH]c3ccccc23)NC(=O)[C@H](Cc2ccc(O)cc2)NC(=O)[C@H](CCCNC(=N)N)NC1=O (Ac-MCREIRYWQLYRAFCGSGSDYKDDDDK-NH2; disulfide 2-15),Kd,[2],> 10 µM
same,Kd,[3],> 10 µM
